Measurements reported in patent US20140088192A1, “SUBCUTANEOUSLY INFUSIBLE LEVODOPA PRODRUG COMPOSITIONS AND METHODS OF INFUSION” (SynAgile Corporation, priority 2010, published 2014).

What was measured:
[1] = test system: volunteer; assay: Intramuscular / subcutaneous infusion of LDEE.HCl in human volunteers, local tolerability; format: in vivo; conditions: s.c. abdomen, 0.24 mL of 2.3 M pH 4.5 over about 90 min in 8 boluses
[2] = Hydrolysis of LDEE salts to LD in aqueous solution, monitored by HPLC; format: physicochemical

Compound: CCOC(=O)[C@@H](N)Cc1ccc(O)c(O)c1.Cl [LDEE.HCl, LDEE Hydrochloride]
- nodule formation [1]: nor did it cause the formation of a nodule
- LD/LDEE HPLC peak ratio ([2]; 0.48M LDEE•HCl, 40° C., 0 hrs, initial pH 4.2): 0.1292
- LD/LDEE HPLC peak ratio ([2]; 0.48M LDEE•HCl, 40° C., 0 hrs, initial pH 4.4): 0.1309
- LD/LDEE HPLC peak ratio ([2]; 0.48M LDEE•HCl, 40° C., 0 hrs, initial pH 4.6): 0.133
- LD/LDEE HPLC peak ratio ([2]; 0.48M LDEE•HCl, 40° C., 0 hrs, initial pH 4.8): 0.1352
- LD/LDEE HPLC peak ratio ([2]; 0.48M LDEE•HCl, 40° C., 0 hrs, initial pH 5): 0.1418
- LD/LDEE HPLC peak ratio ([2]; 0.48M LDEE•HCl, 40° C., 0 hrs, initial pH 5.3): 0.1547
- LD/LDEE HPLC peak ratio ([2]; 0.48M LDEE•HCl, 40° C., 0 hrs, initial pH 5.6): 0.1902
- LD/LDEE HPLC peak ratio ([2]; 0.48M LDEE•HCl, 40° C., 2 hrs, initial pH 4.2): 0.2171
- LD/LDEE HPLC peak ratio ([2]; 0.48M LDEE•HCl, 40° C., 2 hrs, initial pH 4.4): 0.2636
- LD/LDEE HPLC peak ratio ([2]; 0.48M LDEE•HCl, 40° C., 2 hrs, initial pH 4.6): 0.2998
- LD/LDEE HPLC peak ratio ([2]; 0.48M LDEE•HCl, 40° C., 2 hrs, initial pH 4.8): 0.3758
- LD/LDEE HPLC peak ratio ([2]; 0.48M LDEE•HCl, 40° C., 2 hrs, initial pH 5): 0.5202
- LD/LDEE HPLC peak ratio ([2]; 0.48M LDEE•HCl, 40° C., 2 hrs, initial pH 5.3): 0.8609
- LD/LDEE HPLC peak ratio ([2]; 0.48M LDEE•HCl, 40° C., 2 hrs, initial pH 5.6): 1.4028
- LD/LDEE HPLC peak ratio ([2]; 0.48M LDEE•HCl, 40° C., 6 hrs, initial pH 4.2): 0.3079
- LD/LDEE HPLC peak ratio ([2]; 0.48M LDEE•HCl, 40° C., 6 hrs, initial pH 4.4): 0.3994
- LD/LDEE HPLC peak ratio ([2]; 0.48M LDEE•HCl, 40° C., 6 hrs, initial pH 4.6): 0.4804
- LD/LDEE HPLC peak ratio ([2]; 0.48M LDEE•HCl, 40° C., 6 hrs, initial pH 4.8): 0.6546
- LD/LDEE HPLC peak ratio ([2]; 0.48M LDEE•HCl, 40° C., 6 hrs, initial pH 5): 0.9805
- LD/LDEE HPLC peak ratio ([2]; 0.48M LDEE•HCl, 40° C., 6 hrs, initial pH 5.3): 1.7239
- LD/LDEE HPLC peak ratio ([2]; 0.48M LDEE•HCl, 40° C., 6 hrs, initial pH 5.6): 2.8727
- LD/LDEE HPLC peak ratio ([2]; 0.48M LDEE•HCl, 40° C., 24 hrs, initial pH 4.2): 0.8294
- LD/LDEE HPLC peak ratio ([2]; 0.48M LDEE•HCl, 40° C., 24 hrs, initial pH 4.4): 1.1405
- LD/LDEE HPLC peak ratio ([2]; 0.48M LDEE•HCl, 40° C., 24 hrs, initial pH 4.6): 1.415
- LD/LDEE HPLC peak ratio ([2]; 0.48M LDEE•HCl, 40° C., 24 hrs, initial pH 4.8): 1.9804
- LD/LDEE HPLC peak ratio ([2]; 0.48M LDEE•HCl, 40° C., 24 hrs, initial pH 5): 3.0727
- LD/LDEE HPLC peak ratio ([2]; 0.48M LDEE•HCl, 40° C., 24 hrs, initial pH 5.3): 5.6312
- LD/LDEE HPLC peak ratio ([2]; 0.48M LDEE•HCl, 40° C., 24 hrs, initial pH 5.6): 9.6563
- LD/LDEE HPLC peak ratio ([2]; 0.95M LDEE•HCl, 40° C., 0 hrs, initial pH 4.2): 0.1238
- LD/LDEE HPLC peak ratio ([2]; 0.95M LDEE•HCl, 40° C., 0 hrs, initial pH 4.4): 0.1252
- LD/LDEE HPLC peak ratio ([2]; 0.95M LDEE•HCl, 40° C., 0 hrs, initial pH 4.6): 0.128
- LD/LDEE HPLC peak ratio ([2]; 0.95M LDEE•HCl, 40° C., 0 hrs, initial pH 4.8): 0.1354
- LD/LDEE HPLC peak ratio ([2]; 0.95M LDEE•HCl, 40° C., 0 hrs, initial pH 5): 0.1467
- LD/LDEE HPLC peak ratio ([2]; 0.95M LDEE•HCl, 40° C., 0 hrs, initial pH 5.3): 0.1628
- LD/LDEE HPLC peak ratio ([2]; 0.95M LDEE•HCl, 40° C., 0 hrs, initial pH 5.6): 0.1909
- LD/LDEE HPLC peak ratio ([2]; 0.95M LDEE•HCl, 40° C., 2 hrs, initial pH 4.2): 0.2073
- LD/LDEE HPLC peak ratio ([2]; 0.95M LDEE•HCl, 40° C., 2 hrs, initial pH 4.4): 0.2404
- LD/LDEE HPLC peak ratio ([2]; 0.95M LDEE•HCl, 40° C., 2 hrs, initial pH 4.6): 0.2994
- LD/LDEE HPLC peak ratio ([2]; 0.95M LDEE•HCl, 40° C., 2 hrs, initial pH 4.8): 0.3995
- LD/LDEE HPLC peak ratio ([2]; 0.95M LDEE•HCl, 40° C., 2 hrs, initial pH 5): 0.5443
- LD/LDEE HPLC peak ratio ([2]; 0.95M LDEE•HCl, 40° C., 2 hrs, initial pH 5.3): 0.8361
- LD/LDEE HPLC peak ratio ([2]; 0.95M LDEE•HCl, 40° C., 2 hrs, initial pH 5.6): 1.3007
- LD/LDEE HPLC peak ratio ([2]; 0.95M LDEE•HCl, 40° C., 6 hrs, initial pH 4.2): 0.2872
- LD/LDEE HPLC peak ratio ([2]; 0.95M LDEE•HCl, 40° C., 6 hrs, initial pH 4.4): 0.3618
- LD/LDEE HPLC peak ratio ([2]; 0.95M LDEE•HCl, 40° C., 6 hrs, initial pH 4.6): 0.4867
- LD/LDEE HPLC peak ratio ([2]; 0.95M LDEE•HCl, 40° C., 6 hrs, initial pH 4.8): 0.7068
- LD/LDEE HPLC peak ratio ([2]; 0.95M LDEE•HCl, 40° C., 6 hrs, initial pH 5): 1.0212
- LD/LDEE HPLC peak ratio ([2]; 0.95M LDEE•HCl, 40° C., 6 hrs, initial pH 5.3): 1.6832
- LD/LDEE HPLC peak ratio ([2]; 0.95M LDEE•HCl, 40° C., 6 hrs, initial pH 5.6): 2.7417
- LD/LDEE HPLC peak ratio ([2]; 0.95M LDEE•HCl, 40° C., 24 hrs, initial pH 4.2): 0.7792
- LD/LDEE HPLC peak ratio ([2]; 0.95M LDEE•HCl, 40° C., 24 hrs, initial pH 4.4): 1.0438
- LD/LDEE HPLC peak ratio ([2]; 0.95M LDEE•HCl, 40° C., 24 hrs, initial pH 4.6): 1.4684
- LD/LDEE HPLC peak ratio ([2]; 0.95M LDEE•HCl, 40° C., 24 hrs, initial pH 4.8): 2.2128
- LD/LDEE HPLC peak ratio ([2]; 0.95M LDEE•HCl, 40° C., 24 hrs, initial pH 5): 3.2875
- LD/LDEE HPLC peak ratio ([2]; 0.95M LDEE•HCl, 40° C., 24 hrs, initial pH 5.3): 5.6263
- LD/LDEE HPLC peak ratio ([2]; 0.95M LDEE•HCl, 40° C., 24 hrs, initial pH 5.6): 9.5612
- LD concentration versus estimated saturation concentration ([2]; 0.95 M and 0.48 M, 40° C., 24 hrs, up to about pH 5.5): remained below the estimated saturation concentration
- % of LDEE.HCl hydrolyzed in the 21 week period, in addition to initial 0.16% ([2]; 2.4 M, pH 4.0, about 4° C.): 1.34%
